Values quoted from earlier work, collected in US20260263368A1, “DOUBLE-RELEASE THREE-LAYERED BR[…] AND PREPARATION METHOD THEREOF” (TAIZHOU OVERSEAS PHARMACEUTICALS, LTD., priority 2023, published 2026).

Conditions: background statement

Q: For `CCC[C@@H]1CC(=O)N([C@@H](CC)C(N)=O)C1` [Brivaracetam, (2S)-2-[(4R)-2-oxo-4-propyltetrahydro-1H-pyrrol-1-yl]butanamide], which water solubility is on record?
A: good water solubility
